Earlier results as cited in patent US20220378756A1, “ACTIVATING PYRUVATE KINASE R” (FORMA Therapeutics, Inc., priority 2019, published 2022).
Like-named read-outs stand apart in the source and are kept apart here.

Experiments:
[1] = biological target: T1, aromatase (Homo sapiens, UniProt P11511); conditions: Yang et al. 2018; Grace et al. 2019; cited from earlier work
T1 sequence (P11511 1-503): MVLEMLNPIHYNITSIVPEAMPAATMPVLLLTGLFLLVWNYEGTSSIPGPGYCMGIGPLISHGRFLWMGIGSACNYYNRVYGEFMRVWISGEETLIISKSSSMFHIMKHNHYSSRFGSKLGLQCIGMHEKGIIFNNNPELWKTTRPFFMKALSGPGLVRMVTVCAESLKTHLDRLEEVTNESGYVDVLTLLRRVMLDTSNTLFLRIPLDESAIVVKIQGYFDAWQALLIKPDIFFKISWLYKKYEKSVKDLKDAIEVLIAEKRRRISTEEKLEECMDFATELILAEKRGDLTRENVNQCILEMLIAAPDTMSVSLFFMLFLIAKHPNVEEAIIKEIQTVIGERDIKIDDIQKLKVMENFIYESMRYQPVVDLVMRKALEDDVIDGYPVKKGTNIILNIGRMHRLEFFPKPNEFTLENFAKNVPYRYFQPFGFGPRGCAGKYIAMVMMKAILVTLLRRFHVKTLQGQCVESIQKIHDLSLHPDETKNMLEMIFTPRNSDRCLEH

[2] = cited from earlier work

Row | SMILES | aromatase inhibition [1] | AUC increase with high-fat, high-calorie meal vs fasted ([2]; plasma) | Cmax increase with high-fat, high-calorie meal vs fasted ([2]; plasma) | steady state AUC higher in HbSC vs HbSS genotype patients ([2]; plasma) | steady state Cmax higher in HbSC vs HbSS genotype patients ([2]; plasma) | AUC increase with high-fat, high-calorie meal vs fasted ([2]; whole blood) | Cmax increase with high-fat, high-calorie meal vs fasted ([2]; whole blood) | steady state AUC higher in HbSC (n=11) vs HbSS (n=220) genotype patients ([2]; whole blood) | steady state Cmax higher in HbSC (n=11) vs HbSS (n=220) genotype patients ([2]; whole blood)
1 | O=C(c1ccc(NS(=O)(=O)c2cccc3cccnc23)cc1)N1CCN(CC2CC2)CC1 [AG-348] | Aromatase inhibition has been observed |  |  |  |  |  |  |  | 
2 | CC(C)n1nccc1-c1ncccc1COc1cccc(O)c1C=O [voxelotor, 2-hydroxy-6-((2-(1-isopropyl-1H-pyrazol-5-yl)pyridin-3-yl)methoxy)benzaldehyde] |  | 42% | 95% | 23% | 15% | 42% | 45% | 50% | 45%
